Where two headings read alike, the source gives them in different places.
What was measured:
[1] = tested on: HBV; assay: In vitro antiviral assay: anti-HBV replication in HepAD38 cells (extracellular HBV DNA by QPCR); type: cell-based, hepatitis B virus (genotype D, serotype ayw); settings: Hepatitis B virus
Procedure: The anti-HBV activity of the Capsid Assembly Modulators (CAMs) was evaluated in a cell based assay utilizing the human hepatoma cell line HepAD38 (Ladner, S K., et al., 1998). HepAD38 cells were derived from the parental line, HepG2, that were stably transfected with a construct containing an HBV genome (genotype D, serotype ayw) under the control of a tetracycline repressible CMV promoter. Upon removal of tetracycline, viral pre-genomic RNA (pgRNA) and mRNAs are expressed and infectious viral particles are assembled and secreted into the culture medium providing a reliable, robust system to measure multiple steps of the HBV life cycle. Disruption of capsid formation results in reduced levels of DNA-containing virus particles that are released into the culture supernatant. To quantify the effect of CAMs on HBV replication, we developed a sensitive QPCR-based assay that measures extracellular HBV DNA levels upon treatment of HepAD38 cells with various concentrations of test compounds.
HepAD38 cells were maintained in DMEM/F12 medium containing 10% FBS, 400 μg/mL G418 and 0.3 μg/mL tetracycline (tet+ media) to maintain repression of HBV replication. To evaluate each compound, HepAD38 cells were seeded into 24-well collagen coated culture plates (Corning BioCoat) at a density of 200,000 cells per well in 1 mL of medium without tetracycline (tet-media) and allowed to adhere overnight at 37° C., 5% CO2 in a humidified incubator. The following day, media was refreshed and a dose range of each compound was prepared by performing 1 log10 serial dilutions in 100% DMSO at 200× the desired assay concentration. Dilutions were then added to the cells resulting in a final dose range of 1 μM to 10 pM and the plates were returned to the incubator. Following 7 days of incubation, culture supernatants were harvested and HBV DNA levels were evaluated by QPCR and compared to the vehicle treated control wells (i.e. DMSO alone).
To quantify HBV DNA levels, cell culture supernatants were diluted 1:10 in sterile, nuclease-free water (Gibco). The diluted supernatants were subsequently added to a PCR master mix containing 1× Roche Light Cycler Master Mix, 0.5 μM forward primer, 0.5 μM reverse primer (Fwd: 5′-[…] (SEQ ID NO 1); Rev: 5′-[…] (SEQ ID NO 2)), 0.2 μM Roche Universal Probe Library Probe 25. The volume was brought to 20 μL with nuclease-free water and amplification of the HBV target sequence was performed using a Roche LightCycler 480 QPCR instrument. PCR extended out to 45 cycles with each cycle consisting of a denaturation step at 95° C. for 10 sec., followed by an annealing step at 60° C. for 10 sec. and a brief extension step at 72° C. for 1 sec.
Extracellular HBV DNA levels, expressed in copies/mL, were determined by comparison to a standard curve (10^2-10^9 copies/mL) using the Roche LightCycler analysis software. These values were subsequently converted to percent inhibition of HBV replication by dividing the HBV DNA levels in the experimental samples with those obtained from the vehicle control (˜1-2×10^5 copies/mL). Potency, expressed as an EC50 (the effective concentration required to inhibit 50% of HBV replication), was calculated from the dose-response curve using a 4-parameter non-linear regression analysis (GraphPad Prism). The nucleoside analog inhibitor entecavir was used as a positive control to validate each assay run. The EC50 value of entecavir in the HepAD38 assay was 0.5 nM, as previously reported in the literature.

[2] = In vitro cytotoxicity assay (MTT cell viability) in HepG2 cells; type: cell-based, human; settings: human
Procedure: To evaluate antiviral selectivity, the cytotoxic activity of each compound was determined using a standard cell viability assay performed on the parental HepG2 cell line. Cell viability was determined by measuring the conversion of 3-(4,5-dimethylthiazol-2-yl)-2,5-diphenyltetrazolium bromide (MTT) to the insoluble formazan salt crystal that occurs in live cells. Briefly, HepG2 cells were seeded in 96-well plates at a density of 20,000 cells per well in […] (complete growth medium) and allowed to adhere overnight in a 37° C., […] humidified incubator. The next day, test agents were prepared by performing 8 half-log10 serial dilutions in 100% DMSO at 200× the final desired concentration in the assay. Compounds were tested over a range of concentrations from 30 μM to 1.0 nM in the assay. HepG2 cells were incubated in the presence of various concentrations of CAMs for 7 days in a 37° C., […] humidified incubator. At the completion of the 7-day incubation period, MTT reagent was added to each well and the mixture was incubated for an additional 3-4 hours. At the completion of the incubation period, all wells were aspirated to remove the culture medium. The formazan crystals were solubilized from the cell monolayers with 100% DMSO. Plates were briefly mixed on an orbital shaker and absorbance was measured at 492 nm using a Perkin-Elmer EnVision multi-label plate reader. All absorbance values were converted to a percentage of the signal obtained from the vehicle treated controls. Absorbance values at 492 nm are directly proportional to the number of viable cells present in the sample. A CC50 value (cytotoxic concentration that results in loss of 50% cell viability) was calculated from the dose-response curve by 4-parameter, non-linear regression analysis using the GraphPad Prism software. The positive control compound, staurosporine, reduced the viability of HepG2 cells in a dose-dependent manner (CC50=100 nM).

[3] = HePAD38, 168 h, 7 days incubation, extracellular HBV DNA by QPCR, read-out: Anti-HBV EC50

Cc1cc(NC(=O)c2c(C)c(C(=O)C(=O)N[C@@H]3CC[C@H](O)CC3(C)C)n(C)c2C)ccc1F (single isomer, unassigned) [Example 142]
EC50 [1, 3]: < 50 nM
CC50 at 7 days [2]: > 30000 nM

Cc1cc(NC(=O)c2c(C)c(C(=O)C(=O)N[C@@H]3CC[C@@H](O)CC3(C)C)n(C)c2C)ccc1F (single isomer, unassigned) [Example 143]
EC50 [1, 3]: < 50 nM
CC50 at 7 days [2]: > 30000 nM

Cc1cc(NC(=O)c2c(C)c(C(=O)C(=O)N[C@H]3CC[C@@H](S(C)(=O)=O)CC3)n(C)c2C)ccc1F [Example 1, N-(4-fluoro-3-methylphenyl)-1,2,4-trimethyl-5-(2-(((1s,4s)-4-(methylsulfonyl)cyclohexyl)amino)-2-oxoacetyl)-1H-pyrrole-3-carboxamide]
EC50 [1, 3]: < 50 nM
CC50 at 7 days [2]: > 30000 nM

Cc1c(C(=O)Nc2cc(Cl)nc(Cl)c2)c(C)n(C)c1C(=O)C(=O)N[C@H]1CC[C@@H](O)CC1 [Example 2, N-(2,6-dichloropyridin-4-yl)-5-(2-(((1s,4s)-4-hydroxycyclohexyl)amino)-2-oxoacetyl)-1,2,4-trimethyl-1H-pyrrole-3-carboxamide]
EC50 [1, 3]: < 50 nM
CC50 at 7 days [2]: > 30000 nM

Cc1cc(NC(=O)c2c(C)c(C(=O)C(=O)N[C@]3(C4CC4)CC[C@@H](O)CC3)n(C)c2C)ccc1F [Example 3, 5-(2-(((1r,4r)-1-cyclopropyl-4-hydroxycyclohexyl)amino)-2-oxoacetyl)-N-(4-fluoro-3-methylphenyl)-1,2,4-trimethyl-1H-pyrrole-3-carboxamide]
EC50 [1, 3]: < 50 nM
CC50 at 7 days [2]: > 30000 nM

CC[C@]1(NC(=O)C(=O)c2c(C)c(C(=O)Nc3ccc(F)c(C)c3)c(C)n2C)CC[C@H](O)CC1 [Example 4, 5-(2-(((1r,4r)-1-ethyl-4-hydroxycyclohexyl)amino)-2-oxoacetyl)-N-(4-fluoro-3-methylphenyl)-1,2,4-trimethyl-1H-pyrrole-3-carboxamide]
EC50 [1, 3]: < 50 nM
CC50 at 7 days [2]: > 30000 nM

CC[C@]1(NC(=O)C(=O)c2c(C)c(C(=O)Nc3ccc(F)c(C)c3)c(C)n2C)CC[C@@H](O)CC1 [Example 5, 5-(2-(((1s,4s)-1-ethyl-4-hydroxycyclohexyl)amino)-2-oxoacetyl)-N-(4-fluoro-3-methylphenyl)-1,2,4-trimethyl-1H-pyrrole-3-carboxamide]
EC50 [1, 3]: < 50 nM
CC50 at 7 days [2]: > 30000 nM

Cc1cc(NC(=O)c2c(C)c(C(=O)C(=O)N[C@]3(C4CC4)CC[C@H](O)CC3)n(C)c2C)ccc1F [Example 6, 5-(2-(((1s,4s)-1-cyclopropyl-4-hydroxycyclohexyl)amino)-2-oxoacetyl)-N-(4-fluoro-3-methylphenyl)-1,2,4-trimethyl-1H-pyrrole-3-carboxamide]
EC50 [1, 3]: < 50 nM
CC50 at 7 days [2]: > 30000 nM

CCc1c(C(=O)Nc2ccc(F)c(C)c2)c(C)n(C)c1C(=O)C(=O)N[C@]1(C)CC[C@H](O)CC1 [Example 7, 4-ethyl-N-(4-fluoro-3-methylphenyl)-5-(2-(((1s,4s)-4-hydroxy-1-methylcyclohexyl)amino)-2-oxoacetyl)-1,2-dimethyl-1H-pyrrole-3-carboxamide]
EC50 [1, 3]: < 50 nM
CC50 at 7 days [2]: > 30000 nM

Cc1cc(NC(=O)c2c(C)c(C(=O)C(=O)N[C@H]3CC[C@H](S(C)(=O)=O)CC3)n(C)c2C)ccc1F [Example 8, N-(4-fluoro-3-methylphenyl)-1,2,4-trimethyl-5-(2-(((1r,4r)-4-(methylsulfonyl)cyclohexyl)amino)-2-oxoacetyl)-1H-pyrrole-3-carboxamide]
EC50 [1, 3]: < 50 nM
CC50 at 7 days [2]: 5000 to 30000 nM

Cc1c(C(=O)Nc2cc(Cl)nc(Cl)c2)c(C)n(C)c1C(=O)C(=O)N[C@]1(C)CC[C@@H](O)CC1 [Example 9, N-(2,6-dichloropyridin-4-yl)-5-(2-(((1r,4r)-4-hydroxy-1-methylcyclohexyl)amino)-2-oxoacetyl)-1,2,4-trimethyl-1H-pyrrole-3-carboxamide]
EC50 [1, 3]: < 50 nM
CC50 at 7 days [2]: > 30000 nM

Cc1c(C(=O)Nc2cc(Cl)cc(Cl)c2)c(C)n(C)c1C(=O)C(=O)N[C@H]1CC[C@@H](O)CC1 [Example 10, N-(3,5-dichlorophenyl)-5-(2-(((1s,4s)-4-hydroxycyclohexyl)amino)-2-oxoacetyl)-1,2,4-trimethyl-1H-pyrrole-3-carboxamide]
EC50 [1, 3]: < 50 nM
CC50 at 7 days [2]: 5000 to 30000 nM

Cc1c(C(=O)Nc2cc(Cl)nc(Cl)c2)c(C)n(C)c1C(=O)C(=O)N[C@]1(C)CC[C@H](O)CC1 [Example 11, N-(2,6-dichloropyridin-4-yl)-5-(2-(((1s,4s)-4-hydroxy-1-methylcyclohexyl)amino)-2-oxoacetyl)-1,2,4-trimethyl-1H-pyrrole-3-carboxamide]
EC50 [1, 3]: < 50 nM
CC50 at 7 days [2]: > 30000 nM

Cc1c(C(=O)Nc2cccc(Cl)n2)c(C)n(C)c1C(=O)C(=O)N[C@H]1CC[C@@H](O)CC1 [Example 12, N-(6-chloropyridin-2-yl)-5-(2-(((1s,4s)-4-hydroxycyclohexyl)amino)-2-oxoacetyl)-1,2,4-trimethyl-1H-pyrrole-3-carboxamide]
EC50 [1, 3]: 50 to 499 nM
CC50 at 7 days [2]: > 30000 nM

Cc1cc(NC(=O)c2c(C)c(C(=O)C(=O)N[C@H]3CCCC(F)(F)[C@@H]3O)n(C)c2C)ccc1F [Example 13, 5-(2-(((1S,2R)-3,3-difluoro-2-hydroxycyclohexyl)amino)-2-oxoacetyl)-N-(4-fluoro-3-methylphenyl)-1,2,4-trimethyl-1H-pyrrole-3-carboxamide]
EC50 [1, 3]: < 50 nM
CC50 at 7 days [2]: > 30000 nM

Cc1cc(NC(=O)c2c(C)c(C(=O)C(=O)N[C@@H]3CC[C@@H](O)C[C@@H]3F)n(C)c2C)ccc1F [Example 14, N-(4-fluoro-3-methylphenyl)-5-(2-(((1R,2S,4R)-2-fluoro-4-hydroxycyclohexyl)amino)-2-oxoacetyl)-1,2,4-trimethyl-1H-pyrrole-3-carboxamide]
EC50 [1, 3]: < 50 nM
CC50 at 7 days [2]: > 30000 nM

Cc1cc(NC(=O)c2c(C)c(C(=O)C(=O)N[C@@H]3CC[C@H](O)C[C@H]3F)n(C)c2C)ccc1F [Example 15, N-(4-fluoro-3-methylphenyl)-5-(2-(((1R,2R,4S)-2-fluoro-4-hydroxycyclohexyl)amino)-2-oxoacetyl)-1,2,4-trimethyl-1H-pyrrole-3-carboxamide]
EC50 [1, 3]: < 50 nM
CC50 at 7 days [2]: > 30000 nM

C=C1[C@H](CO)[C@@H](O)C[C@@H]1n1cnc2c(=O)[nH]c(N)nc21 [entecavir, reference compound]
EC50 ([1]; HePAD38, positive control, read-out: EC50 in the HepAD38 assay): 0.5 nM

CN[C@@H]1C[C@H]2O[C@@](C)([C@@H]1OC)n1c3ccccc3c3c4c(c5c6ccccc6n2c5c31)C(=O)NC4 [staurosporine, reference compound]
CC50 at 7 days ([2]; positive control, HepG2 cells, MTT, read-out: CC50 (viability of HepG2 cells)): 100 nM
